Source: US5405861A, “Triazole compounds and antifungal compositions thereof” (Takeda Chemical Industries, Co., Ltd., priority 1989, dated 1995)

Columns and labels:
[1] = system: Aspergillus fumigatus IFO 6344; assay: Antifungal activity, paper disc growth inhibition zone (Table 4); format: cell-based; conditions: IFO6344, 48 h, medium A, 28° C., 2 days, disc soaked in 1000 μg/ml solution in methanol, read-out: Inhibition zone diameter
Procedure: (§1) The antifungal activities of the compounds (I) were evaluated by the following method: a sheet of filter paper disc (manufactured by Toyo Seisakusho, 8 mm in diameter) soaked in a 1000 μg/ml solution of a compound (I) in methanol was placed on an agar plate, which was incubated at 28° C. for 2 days, and the diameter of the growth inhibition zone around the filter paper disc was measured. The following culture media were used:
(§2) A: yeast nitrogen base agar medium

[2] = system: Aspergillus niger IFO 4066; assay: as above; format: cell-based; conditions: IFO4066, 48 h, medium A, 28° C., 2 days, disc soaked in 1000 μg/ml solution in methanol, read-out: Inhibition zone diameter
Procedure: as §1, §2

[3] = system: Candida albicans (Ca--O) IFO 0583; assay: as above; format: cell-based; conditions: IFO0583, 48 h, medium A, 28° C., 2 days, disc soaked in 1000 μg/ml solution in methanol, read-out: Inhibition zone diameter
Procedure: as §1, §2

[4] = system: Candida albicans IFO 0583; assay: as above; format: cell-based; conditions: IFO0583, 48 h, medium A, 28° C., 2 days, disc soaked in 1000 μg/ml solution in methanol, read-out: Inhibition zone diameter
Procedure: as §1, §2

[5] = system: Penicillium chrysogenum IFO 4626; assay: as above; format: cell-based; conditions: IFO4626, 48 h, medium A, 28° C., 2 days, disc soaked in 1000 μg/ml solution in methanol, read-out: Inhibition zone diameter
Procedure: as §1, §2

[6] = system: Microsporum gypseum IFO 6075; assay: as above; format: cell-based; conditions: Nannizzia gypsea, IFO6075, 48 h; medium C (Sabouraud agar), 28° C., 2 days, disc soaked in 1000 μg/ml solution in methanol; read-out: Inhibition zone diameter
Procedure: as §1, with “measured.” for “measured. The following culture media were used:”

[7] = system: Trichophyton mentagrophytes IFO 7522; assay: as above; format: cell-based; conditions: IFO7522, 48 h, medium C (Sabouraud agar), 28° C., 2 days, disc soaked in 1000 μg/ml solution in methanol, read-out: Inhibition zone diameter
Procedure: as §1, with “measured.” for “measured. The following culture media were used:”

[8] = system: Trichophyton rubrum IFO 6467; assay: as above; format: cell-based; conditions: IFO6467, 48 h, medium C (Sabouraud agar), 28° C., 2 days, disc soaked in 1000 μg/ml solution in methanol, read-out: Inhibition zone diameter
Procedure: as §1, with “measured.” for “measured. The following culture media were used:”

[9] = system: Candida albicans (IFO 0538); assay: Antifungal activity against Candida albicans, paper disc growth inhibition zone (Tables 5 and 6); format: cell-based; conditions: 48 h, pH 7, B medium (yeast nitrogen base agar, pH 7.0), 28° C., 2 days incubation; read-out: Inhibition zone diameter
Procedure: as §1, §2
B: yeast nitrogen base agar medium (pH 7.0)

Candida albicans [10] = assay: Infection-preventing effect in experimental infection in mice, Method 1 (Table 7-1); format: in vivo, Crj:CDF1 mice; conditions: Candida albicans, 168 h, given 0 and 2 hours after infection, survival 7 days after infection, total dose, read-out: ED50
Procedure: (§3) Method 1 (Table 7-1): To 5-week-old Crj:CDF1 mice the minimum lethal dose of Candida albicans was inoculated intravenously. The test drug was given twice 0 and 2 hours after infection. The effectiveness of the drug was expressed in ED50 values calculated by the Reed and Muench method from the survival rate 7 days after infection. The ED50 values were calculated based on the total dose given on the two occasions.

Candida albicans [11] = assay: Infection-preventing effect in experimental infection in mice, Method 2 (Table 7-2); format: in vivo, Crj:CDF1 mice; conditions: po, 168 h, p.o., given just after infection, survival 7 days after infection
Procedure: as §3, with “Method 2” for “Method 1”, “(Table 7-2):” for “(Table 7-1):”, “given just” for “given twice 0 and 2 hours”

C[C@@H](SCc1ccncc1)[C@](O)(Cn1cncn1)c1ccc(F)cc1F (relative stereo) [Compound 15]
zone of inhibition at 1000 µg/mL [1]: 30 mm
zone of inhibition at 1000 µg/mL [2]: 29 mm
zone of inhibition at 1000 µg/mL [3]: 32 mm
zone of inhibition at 1000 µg/mL [4]: 34 mm
zone of inhibition at 1000 µg/mL [5]: 23 mm
zone of inhibition at 1000 µg/mL [6]: 45 mm
zone of inhibition at 1000 µg/mL [7]: 50 mm
zone of inhibition at 1000 µg/mL [8]: 60 mm
zone of inhibition at 1000 µg/mL [9]: 25 mm
ED50 (Candida albicans [10]; sc, s.c.): 2.5 mg/kg

Cc1nc(CS[C@H](C)[C@](O)(Cn2cncn2)c2ccc(F)cc2F)cs1 [Compound 107]
zone of inhibition at 1000 µg/mL [9]: 33 mm
ED50 (Candida albicans [10]; po, p.o.): < 0.5 mg/kg
ED50 (Candida albicans [10]; sc, s.c.): 0.71 mg/kg
ED50 (Candida albicans [11]): 0.39 mg/kg

C[C@@H](SCc1ncc2n1CCC2)[C@](O)(Cn1cncn1)c1ccc(F)cc1F [Compound 97]
zone of inhibition at 1000 µg/mL [9]: 27 mm
ED50 (Candida albicans [11]): 0.5 mg/kg

C[C@@H](SCc1cn2ccncc2n1)[C@](O)(Cn1cncn1)c1ccc(F)cc1F [Compound 124]
zone of inhibition at 1000 µg/mL [9]: 30 mm
ED50 (Candida albicans [11]): 0.7 mg/kg

C[C@H](S)[C@@](O)(Cn1cncn1)c1ccc(F)cc1F [Compound 42, (2S,3S)-2-(2,4-difluorophenyl)-3-mercapto-1-(1H-1,2,4-triazol-1-yl)-2-butanol]
zone of inhibition at 1000 µg/mL [9]: 34 mm
ED50 (Candida albicans [11]): > 4 mg/kg

C[C@@H](S)[C@@](O)(Cn1cncn1)c1ccc(F)cc1F [Compound 117, (2S,3R)-2-(2,4-difluorophenyl)-3-mercapto-1-(1 H-1,2,4-triazol-1-yl)-2-butanol]
zone of inhibition at 1000 µg/mL [9]: 25 mm
ED50 (Candida albicans [11]): > 4 mg/kg

Cc1ncc(CS[C@H](C)[C@](O)(Cn2cncn2)c2ccc(F)cc2F)s1 [Compound 108]
zone of inhibition at 1000 µg/mL [9]: 40 mm
ED50 (Candida albicans [11]): 1.4 mg/kg

C[C@@H](SCc1nccn1CC(F)F)[C@](O)(Cn1cncn1)c1ccc(F)cc1F [Compound 109]
zone of inhibition at 1000 µg/mL [9]: 28 mm
ED50 (Candida albicans [11]): 0.5 mg/kg

C[C@@H](SCc1csc(C2CC2)n1)[C@](O)(Cn1cncn1)c1ccc(F)cc1F [Compound 123]
zone of inhibition at 1000 µg/mL [9]: 35 mm
ED50 (Candida albicans [11]): 0.5 mg/kg

C[C@@H](SCc1ncc2cccnn12)[C@](O)(Cn1cncn1)c1ccc(F)cc1F [Compound 131]
zone of inhibition at 1000 µg/mL [9]: 40 mm
ED50 (Candida albicans [11]): 0.7 mg/kg

C[C@@H](SCc1cnc2cccnn12)[C@](O)(Cn1cncn1)c1ccc(F)cc1F [Compound 129]
zone of inhibition at 1000 µg/mL [9]: 35 mm
ED50 (Candida albicans [11]): 0.5 mg/kg

C[C@@H](SCc1nncn1C1CC1)[C@](O)(Cn1cncn1)c1ccc(F)cc1F [Compound 114]
zone of inhibition at 1000 µg/mL [9]: 15 mm
ED50 (Candida albicans [11]): 0.4 mg/kg

C[C@@H](SCc1nsc(N)n1)[C@](O)(Cn1cncn1)c1ccc(F)cc1F [Compound 128]
zone of inhibition at 1000 µg/mL [9]: 30 mm
ED50 (Candida albicans [11]): 2 mg/kg

C[C@@H](SCc1csc(C(F)(F)F)n1)[C@](O)(Cn1cncn1)c1ccc(F)cc1F [Compound 122]
zone of inhibition at 1000 µg/mL [9]: 35 mm
ED50 (Candida albicans [11]): 0.5 mg/kg

C[C@@H](SCc1cn2cccnc2n1)[C@](O)(Cn1cncn1)c1ccc(F)cc1F [Compound 125]
zone of inhibition at 1000 µg/mL [9]: 33 mm
ED50 (Candida albicans [11]): 0.5 mg/kg

C[C@H](S)[C@](O)(Cn1cncn1)c1ccc(F)cc1F [Compound 118, (2R,3S)-2-(2,4-difluorophenyl)-3-mercapto-1-(1H-1,2,4-triazol-1-yl)-2-butanol]
zone of inhibition at 1000 µg/mL [9]: 33 mm
ED50 (Candida albicans [11]): 2.8 mg/kg

C[C@@H](SCc1csc(N)n1)[C@](O)(Cn1cncn1)c1ccc(F)cc1F [Compound 121]
zone of inhibition at 1000 µg/mL [9]: 35 mm
ED50 (Candida albicans [11]): 0.5 mg/kg

Cc1csc(CS[C@H](C)[C@](O)(Cn2cncn2)c2ccc(F)cc2F)n1 [Compound 99]
zone of inhibition at 1000 µg/mL [9]: 35 mm
ED50 (Candida albicans [11]): 1.4 mg/kg

CC(C)(S)C(O)(Cn1cncn1)c1ccc(F)cc1F (stereo not drawn) [Compound 119]
zone of inhibition at 1000 µg/mL [9]: 30 mm
ED50 (Candida albicans [11]): 0.18 mg/kg

C[C@@H](SCc1ncc2ncccn12)[C@](O)(Cn1cncn1)c1ccc(F)cc1F [Compound 130]
zone of inhibition at 1000 µg/mL [9]: 35 mm
ED50 (Candida albicans [11]): 0.7 mg/kg

C[C@@H](Sc1nc2c(s1)CCC2)[C@](O)(Cn1cncn1)c1ccc(F)cc1F (relative stereo) [Compound 12]
zone of inhibition at 1000 µg/mL [1]: 38 mm
zone of inhibition at 1000 µg/mL [2]: 20 mm
zone of inhibition at 1000 µg/mL [3]: 41 mm
zone of inhibition at 1000 µg/mL [4]: 42 mm
zone of inhibition at 1000 µg/mL [5]: 15 mm
zone of inhibition at 1000 µg/mL [6]: 35 mm
zone of inhibition at 1000 µg/mL [7]: 32 mm
zone of inhibition at 1000 µg/mL [8]: 35 mm
zone of inhibition at 1000 µg/mL [9]: 25 mm
ED50 (Candida albicans [10]; sc, s.c.): 2.5 mg/kg
